According to article PMC11233931, “Remodeling tumor‐associated macrophage for anti‐cancer effects by rational design of irreversible inhibition of mitogen‐activated protein kinase‐activated protein kinase 2” (MedComm, 2024):

Key:
Experiment in all cases: Eurofins kinase selectivity profile against 380 other human recombinant kinases (Table S2)
Type in all cases: biochemical
[1] = molecular target: T1, 380 human recombinant protein kinases (Homo sapiens, UniProt P36888); details: Flt3(h), read-out: Inhibition rate
T1 construct: purchased Eurofins (Celle Lévescault)
T1 sequence (P36888 27-993): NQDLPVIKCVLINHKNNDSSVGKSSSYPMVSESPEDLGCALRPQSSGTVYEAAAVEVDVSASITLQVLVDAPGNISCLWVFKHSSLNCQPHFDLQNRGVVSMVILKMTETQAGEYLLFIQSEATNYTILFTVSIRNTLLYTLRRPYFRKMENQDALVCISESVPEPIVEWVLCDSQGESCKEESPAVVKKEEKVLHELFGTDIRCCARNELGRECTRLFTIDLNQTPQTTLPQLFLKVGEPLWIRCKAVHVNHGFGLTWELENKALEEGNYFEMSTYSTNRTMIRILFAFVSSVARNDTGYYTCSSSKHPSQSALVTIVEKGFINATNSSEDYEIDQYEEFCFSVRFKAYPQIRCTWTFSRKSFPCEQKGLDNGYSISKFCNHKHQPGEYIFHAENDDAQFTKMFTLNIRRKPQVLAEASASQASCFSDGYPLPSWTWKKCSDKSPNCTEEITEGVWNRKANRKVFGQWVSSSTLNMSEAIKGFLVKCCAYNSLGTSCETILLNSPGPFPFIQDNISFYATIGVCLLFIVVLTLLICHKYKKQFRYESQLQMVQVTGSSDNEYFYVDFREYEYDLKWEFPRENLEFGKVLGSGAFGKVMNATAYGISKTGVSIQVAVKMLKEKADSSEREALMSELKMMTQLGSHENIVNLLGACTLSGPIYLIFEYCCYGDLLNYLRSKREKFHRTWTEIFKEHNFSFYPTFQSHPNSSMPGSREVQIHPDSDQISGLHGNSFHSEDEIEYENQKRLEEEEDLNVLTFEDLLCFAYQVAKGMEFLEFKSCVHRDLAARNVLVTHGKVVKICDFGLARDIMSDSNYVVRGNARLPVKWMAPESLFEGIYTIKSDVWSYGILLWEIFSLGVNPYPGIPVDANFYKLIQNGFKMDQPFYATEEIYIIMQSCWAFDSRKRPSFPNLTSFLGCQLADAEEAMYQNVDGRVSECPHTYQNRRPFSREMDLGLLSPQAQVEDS
In short: (§1)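 Commercial selectivity screen of the test compound against a panel of 380 human recombinant protein kinases, run by an outside contractor at several compound concentrations to check whether its potency was specific for MK2.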

[2] = molecular target: T2, 380 human recombinant protein kinases (Homo sapiens, UniProt P53350); details: Plk1(h), read-out: Inhibition rate
T2 construct: purchased Eurofins (Celle Lévescault)
In short: as §1

[3] = molecular target: T3, 380 human recombinant protein kinases (Homo sapiens, UniProt P54646); details: AMPKα2(h), read-out: Inhibition rate
T3 construct: purchased Eurofins (Celle Lévescault)
In short: as §1

[4] = molecular target: T4, 380 human recombinant protein kinases (Homo sapiens, UniProt Q16832); details: DDR2(h), read-out: Inhibition rate
T4 construct: purchased Eurofins (Celle Lévescault)
T4 sequence (Q16832 22-855): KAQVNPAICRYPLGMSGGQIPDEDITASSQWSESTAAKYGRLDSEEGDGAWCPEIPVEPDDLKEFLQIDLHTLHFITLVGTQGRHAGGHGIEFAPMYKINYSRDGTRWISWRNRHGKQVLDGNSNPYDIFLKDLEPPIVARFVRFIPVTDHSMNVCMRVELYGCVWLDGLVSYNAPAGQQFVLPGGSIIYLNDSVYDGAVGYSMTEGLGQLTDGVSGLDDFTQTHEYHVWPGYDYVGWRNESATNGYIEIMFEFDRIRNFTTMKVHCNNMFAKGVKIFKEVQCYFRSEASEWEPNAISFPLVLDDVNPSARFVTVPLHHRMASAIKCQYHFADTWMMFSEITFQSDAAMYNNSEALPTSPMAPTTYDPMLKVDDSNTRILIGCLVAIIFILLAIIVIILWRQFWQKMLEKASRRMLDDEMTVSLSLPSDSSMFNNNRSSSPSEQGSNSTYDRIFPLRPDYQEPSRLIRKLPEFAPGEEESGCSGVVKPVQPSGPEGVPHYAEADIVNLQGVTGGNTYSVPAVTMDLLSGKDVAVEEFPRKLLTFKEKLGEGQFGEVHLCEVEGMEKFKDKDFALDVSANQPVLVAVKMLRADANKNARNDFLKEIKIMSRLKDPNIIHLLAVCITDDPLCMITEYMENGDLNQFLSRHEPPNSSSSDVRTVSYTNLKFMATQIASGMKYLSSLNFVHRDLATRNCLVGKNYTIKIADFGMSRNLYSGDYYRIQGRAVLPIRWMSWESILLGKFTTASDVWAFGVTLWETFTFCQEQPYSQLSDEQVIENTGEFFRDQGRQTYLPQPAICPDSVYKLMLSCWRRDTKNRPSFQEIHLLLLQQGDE
In short: as §1

[5] = molecular target: T5, 380 human recombinant protein kinases (Homo sapiens, UniProt Q07912); details: ACK1(h), read-out: Inhibition rate
T5 construct: purchased Eurofins (Celle Lévescault)
In short: as §1

[6] = molecular target: T6, 380 human recombinant protein kinases (Homo sapiens, UniProt O75582); details: MSK1(h), read-out: Inhibition rate
T6 construct: purchased Eurofins (Celle Lévescault)
In short: as §1

[7] = molecular target: T7, 380 human recombinant protein kinases (Homo sapiens, UniProt Q96NX5); details: CaMKIγ(h), read-out: Inhibition rate
T7 construct: purchased Eurofins (Celle Lévescault)
In short: as §1

[8] = molecular target: T8, 380 human recombinant protein kinases (Homo sapiens, UniProt Q00526); details: CDK3/cyclinE(h), read-out: Inhibition rate
T8 construct: purchased Eurofins (Celle Lévescault)
In short: as §1

T5 sequence (Q07912 whole entry): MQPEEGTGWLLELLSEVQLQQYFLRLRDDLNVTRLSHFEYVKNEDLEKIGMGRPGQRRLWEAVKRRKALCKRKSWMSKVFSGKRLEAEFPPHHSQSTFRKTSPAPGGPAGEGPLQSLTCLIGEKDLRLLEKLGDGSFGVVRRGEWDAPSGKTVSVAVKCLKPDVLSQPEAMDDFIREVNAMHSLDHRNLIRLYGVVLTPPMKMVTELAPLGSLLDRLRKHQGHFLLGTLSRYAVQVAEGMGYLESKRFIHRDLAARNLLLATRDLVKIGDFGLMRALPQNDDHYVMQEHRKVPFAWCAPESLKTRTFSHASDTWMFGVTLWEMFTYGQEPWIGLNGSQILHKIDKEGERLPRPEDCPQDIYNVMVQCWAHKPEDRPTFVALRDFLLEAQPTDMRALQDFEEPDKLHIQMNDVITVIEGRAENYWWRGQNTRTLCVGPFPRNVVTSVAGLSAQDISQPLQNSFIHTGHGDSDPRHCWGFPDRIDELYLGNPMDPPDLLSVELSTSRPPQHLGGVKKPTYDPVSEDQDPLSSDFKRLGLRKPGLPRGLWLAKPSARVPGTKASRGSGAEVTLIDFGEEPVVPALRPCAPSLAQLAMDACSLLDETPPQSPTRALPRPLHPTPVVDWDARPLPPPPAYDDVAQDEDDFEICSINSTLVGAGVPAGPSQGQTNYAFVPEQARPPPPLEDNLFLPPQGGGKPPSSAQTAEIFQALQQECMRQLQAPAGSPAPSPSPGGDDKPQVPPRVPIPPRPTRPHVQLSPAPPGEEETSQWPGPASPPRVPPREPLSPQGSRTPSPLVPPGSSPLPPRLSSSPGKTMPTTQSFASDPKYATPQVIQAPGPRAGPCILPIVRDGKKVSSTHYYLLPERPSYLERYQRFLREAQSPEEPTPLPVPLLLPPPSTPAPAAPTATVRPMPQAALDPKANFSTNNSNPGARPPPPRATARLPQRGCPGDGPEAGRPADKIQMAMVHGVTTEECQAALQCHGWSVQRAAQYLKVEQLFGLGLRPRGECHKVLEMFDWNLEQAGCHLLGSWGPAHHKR
T6 sequence (O75582 whole entry): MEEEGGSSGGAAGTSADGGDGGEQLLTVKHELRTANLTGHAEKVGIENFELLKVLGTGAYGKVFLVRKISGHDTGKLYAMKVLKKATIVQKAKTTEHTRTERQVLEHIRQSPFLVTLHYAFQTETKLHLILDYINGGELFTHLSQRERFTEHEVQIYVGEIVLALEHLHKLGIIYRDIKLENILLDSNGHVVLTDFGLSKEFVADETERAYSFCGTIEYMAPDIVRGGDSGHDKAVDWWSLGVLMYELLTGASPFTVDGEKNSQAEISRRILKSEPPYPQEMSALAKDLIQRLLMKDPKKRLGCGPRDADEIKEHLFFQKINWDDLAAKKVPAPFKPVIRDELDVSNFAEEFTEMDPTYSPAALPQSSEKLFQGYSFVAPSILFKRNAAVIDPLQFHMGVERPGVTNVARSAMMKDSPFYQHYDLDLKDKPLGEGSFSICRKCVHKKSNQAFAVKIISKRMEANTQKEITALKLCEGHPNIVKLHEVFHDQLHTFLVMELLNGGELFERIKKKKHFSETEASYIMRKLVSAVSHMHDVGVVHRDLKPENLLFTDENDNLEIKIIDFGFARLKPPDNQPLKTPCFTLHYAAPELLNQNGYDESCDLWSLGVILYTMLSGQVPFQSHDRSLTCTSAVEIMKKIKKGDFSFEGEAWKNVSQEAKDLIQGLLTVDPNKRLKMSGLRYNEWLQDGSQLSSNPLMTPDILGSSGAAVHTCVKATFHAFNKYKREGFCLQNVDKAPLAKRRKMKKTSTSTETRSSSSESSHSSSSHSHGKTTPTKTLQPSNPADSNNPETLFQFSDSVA
T8 sequence (Q00526 whole entry): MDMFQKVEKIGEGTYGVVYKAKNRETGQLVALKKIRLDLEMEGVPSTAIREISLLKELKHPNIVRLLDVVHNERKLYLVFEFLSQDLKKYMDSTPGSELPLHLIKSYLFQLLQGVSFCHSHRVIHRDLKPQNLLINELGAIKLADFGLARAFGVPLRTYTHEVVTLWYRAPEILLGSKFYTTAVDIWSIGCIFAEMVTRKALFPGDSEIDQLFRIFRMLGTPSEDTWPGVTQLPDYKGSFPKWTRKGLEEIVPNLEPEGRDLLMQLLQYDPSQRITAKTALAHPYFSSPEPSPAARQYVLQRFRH
T7 sequence (Q96NX5 whole entry): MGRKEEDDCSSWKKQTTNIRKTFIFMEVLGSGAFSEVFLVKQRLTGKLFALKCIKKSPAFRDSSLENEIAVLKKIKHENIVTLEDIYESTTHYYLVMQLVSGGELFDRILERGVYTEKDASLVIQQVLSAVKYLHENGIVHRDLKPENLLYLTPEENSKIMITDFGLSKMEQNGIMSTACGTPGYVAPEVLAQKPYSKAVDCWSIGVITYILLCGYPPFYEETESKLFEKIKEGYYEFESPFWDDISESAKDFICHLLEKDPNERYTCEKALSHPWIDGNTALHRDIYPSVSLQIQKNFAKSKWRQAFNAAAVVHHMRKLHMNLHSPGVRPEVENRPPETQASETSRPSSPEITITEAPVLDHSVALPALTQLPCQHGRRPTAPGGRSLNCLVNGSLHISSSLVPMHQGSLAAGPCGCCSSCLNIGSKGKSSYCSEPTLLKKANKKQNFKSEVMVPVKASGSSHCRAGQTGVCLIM
T2 sequence (P53350 whole entry): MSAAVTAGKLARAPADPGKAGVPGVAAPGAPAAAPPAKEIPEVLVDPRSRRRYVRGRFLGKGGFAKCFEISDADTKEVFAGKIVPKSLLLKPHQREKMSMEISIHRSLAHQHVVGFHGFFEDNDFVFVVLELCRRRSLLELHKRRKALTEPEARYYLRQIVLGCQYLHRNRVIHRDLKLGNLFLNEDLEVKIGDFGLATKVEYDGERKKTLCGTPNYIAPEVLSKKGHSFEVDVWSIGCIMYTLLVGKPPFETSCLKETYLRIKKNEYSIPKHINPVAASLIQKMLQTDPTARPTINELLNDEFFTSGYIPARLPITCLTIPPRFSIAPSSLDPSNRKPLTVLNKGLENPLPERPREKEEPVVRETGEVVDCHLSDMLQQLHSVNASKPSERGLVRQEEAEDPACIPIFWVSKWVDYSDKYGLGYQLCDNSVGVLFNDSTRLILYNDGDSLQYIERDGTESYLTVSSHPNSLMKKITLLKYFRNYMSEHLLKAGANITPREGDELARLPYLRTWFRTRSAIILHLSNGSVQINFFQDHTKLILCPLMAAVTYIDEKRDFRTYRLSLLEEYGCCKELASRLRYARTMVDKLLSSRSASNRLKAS
T3 sequence (P54646 whole entry): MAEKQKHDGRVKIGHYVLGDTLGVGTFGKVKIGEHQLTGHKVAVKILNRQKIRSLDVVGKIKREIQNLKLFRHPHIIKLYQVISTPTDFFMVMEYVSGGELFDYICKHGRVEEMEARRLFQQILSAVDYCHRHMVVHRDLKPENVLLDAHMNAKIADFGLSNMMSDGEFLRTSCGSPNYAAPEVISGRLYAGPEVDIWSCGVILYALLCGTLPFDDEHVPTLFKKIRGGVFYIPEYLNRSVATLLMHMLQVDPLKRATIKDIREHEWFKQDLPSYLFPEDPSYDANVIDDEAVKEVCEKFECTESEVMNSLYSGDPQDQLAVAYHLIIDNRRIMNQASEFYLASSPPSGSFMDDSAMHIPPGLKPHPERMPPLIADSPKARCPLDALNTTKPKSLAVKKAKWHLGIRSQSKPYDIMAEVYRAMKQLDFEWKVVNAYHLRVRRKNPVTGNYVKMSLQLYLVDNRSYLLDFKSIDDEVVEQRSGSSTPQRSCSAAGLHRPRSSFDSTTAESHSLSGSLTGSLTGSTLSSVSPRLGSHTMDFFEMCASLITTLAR

`C=CC(=O)Nc1cc(-c2cc(-c3cc4c([nH]3)CCNC4=O)ccn2)ccc1OC(F)(F)F` [compound 11] was tested. Which inhibition at 0.01 µM ([1]; 10 nM) did it give?
The inhibition at 0.01 µM was -12%.

What about the inhibition at 0.1 µM ([1]; 100 nM) of the same compound?
The inhibition at 0.1 µM was -5%.

And the inhibition at 1 µM ([1]; 1000 nM)?
The inhibition at 1 µM was 24%.

What about the inhibition at 0.01 µM ([2]; 10 nM) of the same compound?
Its inhibition at 0.01 µM is 13%.

What about the inhibition at 0.1 µM ([2]; 100 nM) of the same compound?
Its inhibition at 0.1 µM is 15%.

And the inhibition at 1 µM ([2]; 1000 nM)?
Its inhibition at 1 µM is 13%.

What about the inhibition at 0.01 µM ([3]; 10 nM) of the same compound?
Its inhibition at 0.01 µM is 3%.

And the inhibition at 0.1 µM ([3]; 100 nM)?
Its inhibition at 0.1 µM is 11%.

And the inhibition at 1 µM ([3]; 1000 nM)?
Its inhibition at 1 µM is 43%.

What about the inhibition at 0.01 µM ([4]; 10 nM) of the same compound?
The inhibition at 0.01 µM was -7%.

What about the inhibition at 0.1 µM ([4]; 100 nM) of the same compound?
Its inhibition at 0.1 µM is -10%.

What about the inhibition at 1 µM ([4]; 1000 nM) of the same compound?
The inhibition at 1 µM was -10%.

And the inhibition at 0.01 µM ([5]; 10 nM)?
Its inhibition at 0.01 µM is 1%.

And the inhibition at 0.1 µM ([5]; 100 nM)?
Its inhibition at 0.1 µM is 2%.

What about the inhibition at 1 µM ([5]; 1000 nM) of the same compound?
Its inhibition at 1 µM is 3%.

And the inhibition at 0.01 µM ([6]; 10 nM)?
Its inhibition at 0.01 µM is -11%.

And the inhibition at 0.1 µM ([6]; 100 nM)?
Its inhibition at 0.1 µM is -12%.

What about the inhibition at 1 µM ([6]; 1000 nM) of the same compound?
Its inhibition at 1 µM is -11%.

And the inhibition at 0.01 µM ([7]; 10 nM)?
Its inhibition at 0.01 µM is -9%.

And the inhibition at 0.1 µM ([7]; 100 nM)?
Its inhibition at 0.1 µM is -14%.

And the inhibition at 1 µM ([7]; 1000 nM)?
Its inhibition at 1 µM is -15%.

And the inhibition at 0.01 µM ([8]; 10 nM)?
The inhibition at 0.01 µM was -5%.

And the inhibition at 0.1 µM ([8]; 100 nM)?
Its inhibition at 0.1 µM is -1%.

And the inhibition at 1 µM ([8]; 1000 nM)?
The inhibition at 1 µM was 0%.
